Results reported in patent US20220041613A1, “TYROSINE KINASE INHIBITOR COMPOSITIONS, METHODS OF MAKING AND METHODS OF USE” (Black Diamond Therapeutics, Inc., priority 2018, published 2022).
Where two headings read alike, the source gives them in different places.

Key:
[1] = system: covalently-activated EGFR variants (EGFR-Viii, EGFR-Vii, EGFR-Vvi, EGFR-A289V); assay: Western blot under non-reducing conditions: monomeric versus covalently dimerized and phosphorylated EGFR; type: cell-based, Homo sapiens
[2] = system: BaF3 cells expressing EGFR-Viii, EGFR-Vii or EGFR-A289V; assay: Proliferation of BaF3 cells expressing covalently-activated EGFR; type: cell-based, murine
[3] = molecular target: T1, EGFR V3 (EGFR-Viii) (Homo sapiens, UniProt P00533, DELINS30-297G); assay: Assay for cell proliferation (BaF3 transformants, CellTiterGlo), Activity for Inhibiting EGFR; type: cell-based; details: potency code, 3 days drug
T1 construct: expressed in transfected cells; host or cells: BaF3 (murine pro-B), retroviral pMXs-IRES-Blasticidin, selected for IL-3 independence
Protocol: (§1) Retroviral Production: EGFR mutants were subcloned into pMXs-IRES-Blasticidin (RTV-016, Cell Biolabs, San Diego, Calif.). Retroviral expression vector retrovirus was produced by transient transfection of HEK 293T cells with the retroviral EGFR mutant expression vector pMXs-IRES-Blasticidin (RTV-016, Cell Biolabs), pCMV-Gag-Pol vector and pCMV-VSV-G-Envelope vector. HEK 293T/17 cells were plated in 100 mm collagen coated plate (354450, Corning Life Sciences, Tewksbury, Mass.) (4×10^5 per plate) and incubated overnight. The next day, retroviral plasmids (3 μg of EGFR mutant, 1.0 μg of pCMV-Gag-Pol and 0.5 μg pCMV-VSV-G) were mixed in 500 μl of Optimem (31985, Life Technologies). The mixture was incubated at room temperature for 5 min and then added to Optimem containing transfection reagent Lipofectamine (11668, Invitrogen) and incubated for 20 minutes. Mixture was then added dropwise to HEK 293T cells. The next day the medium was replaced with fresh culture medium and retrovirus was harvested @ 24 and 48 hrs. Generation of EGFR mutant stable cell lines: BaF3 cells (1.5E5 cells) were infected with 1 ml of viral supernatant supplemented with 8 μg/ml polybrene by centrifuging for 30 min at 1000 rpm. Cells were placed in a 37° C. incubator overnight. Cells were then spun for 5 minutes to pellet the cells. Supernatant was removed and cells re-infected a fresh 1 ml of viral supernatant supplemented with 8 μg/ml polybrene by centrifuging for 30 min at 1000 rpm. Cells were placed in 37° C. incubator overnight. […] After 48 hours cells were selected for retroviral infection in 10 μg/ml Blasticidin for one week. Blasticidin resistant populations were washed twice in phosphate buffered saline before plating in media lacking IL-3 to select for IL-3 independent growth.
as §1, with “fresh 1 m1 of viral” for “fresh 1 ml of viral”

[4] = molecular target: T2, HER2 WT (Homo sapiens, UniProt P04626); assay: Assay for cell proliferation (CellTiterGlo), Activity for Inhibiting HER2; type: cell-based
T2 construct: endogenous in cells; host or cells: BT474

[5] = molecular target: T3, EGFR WT (Homo sapiens, UniProt P00533); assay: Assay for cell proliferation (CellTiterGlo), Activity for Inhibiting EGFR; type: cell-based; details: potency code, 3 days drug
T3 construct: endogenous in cells; host or cells: A431 (+H292)

[6] = molecular target: T4, HER2 S310F (Homo sapiens, UniProt P04626, S310F); assay: Assay for cell proliferation (BaF3 transformants, CellTiterGlo), Activity for Inhibiting HER2; type: cell-based; details: potency code, 3 days drug
T4 construct: expressed in transfected cells; host or cells: BaF3 (murine pro-B) transformants

[7] = molecular target: T5, EGFR SVD (Homo sapiens, UniProt P00533, INS770SVD); assay: Assay for cell proliferation (BaF3 transformants, CellTiterGlo), Activity for Inhibiting EGFR; type: cell-based; details: potency code, 3 days drug
T5 construct: expressed in transfected cells; host or cells: BaF3 (murine pro-B), retroviral pMXs-IRES-Blasticidin, selected for IL-3 independence
Protocol: as §1
as §1, with “fresh 1 m1 of viral” for “fresh 1 ml of viral”

[8] = molecular target: T6, EGFR NPH (Homo sapiens, UniProt P00533, INS773NPH); assay: as above; type: cell-based; details: potency code, 3 days drug
T6 construct: expressed in transfected cells; host or cells: BaF3 (murine pro-B), retroviral pMXs-IRES-Blasticidin, selected for IL-3 independence
Protocol: as §1
as §1, with “fresh 1 m1 of viral” for “fresh 1 ml of viral”

[9] = molecular target: T7, HER2 YVMA (Homo sapiens, UniProt P04626, INS775YVMA); assay: Assay for cell proliferation (BaF3 transformants, CellTiterGlo), Activity for Inhibiting HER2; type: cell-based; details: potency code, 3 days drug
T7 construct: expressed in transfected cells; host or cells: BaF3 (murine pro-B) transformants

[10] = covalent dimers of covalently-activated EGFR variants, cells expressing EGFR-Vii and EGFR-A289V (FIG. 8)
[11] = Table B (Example 2), potency code, 3 days drug, read-out: HER2 WT
[12] = Table B, potency code, 3 days drug, read-out: HER2 WT
[13] = 'about ... or less', read-out: IC50 value for inhibiting wild-type HER2

T1 sequence (P00533 with tags, fused parts or gaps DELINS30-297G): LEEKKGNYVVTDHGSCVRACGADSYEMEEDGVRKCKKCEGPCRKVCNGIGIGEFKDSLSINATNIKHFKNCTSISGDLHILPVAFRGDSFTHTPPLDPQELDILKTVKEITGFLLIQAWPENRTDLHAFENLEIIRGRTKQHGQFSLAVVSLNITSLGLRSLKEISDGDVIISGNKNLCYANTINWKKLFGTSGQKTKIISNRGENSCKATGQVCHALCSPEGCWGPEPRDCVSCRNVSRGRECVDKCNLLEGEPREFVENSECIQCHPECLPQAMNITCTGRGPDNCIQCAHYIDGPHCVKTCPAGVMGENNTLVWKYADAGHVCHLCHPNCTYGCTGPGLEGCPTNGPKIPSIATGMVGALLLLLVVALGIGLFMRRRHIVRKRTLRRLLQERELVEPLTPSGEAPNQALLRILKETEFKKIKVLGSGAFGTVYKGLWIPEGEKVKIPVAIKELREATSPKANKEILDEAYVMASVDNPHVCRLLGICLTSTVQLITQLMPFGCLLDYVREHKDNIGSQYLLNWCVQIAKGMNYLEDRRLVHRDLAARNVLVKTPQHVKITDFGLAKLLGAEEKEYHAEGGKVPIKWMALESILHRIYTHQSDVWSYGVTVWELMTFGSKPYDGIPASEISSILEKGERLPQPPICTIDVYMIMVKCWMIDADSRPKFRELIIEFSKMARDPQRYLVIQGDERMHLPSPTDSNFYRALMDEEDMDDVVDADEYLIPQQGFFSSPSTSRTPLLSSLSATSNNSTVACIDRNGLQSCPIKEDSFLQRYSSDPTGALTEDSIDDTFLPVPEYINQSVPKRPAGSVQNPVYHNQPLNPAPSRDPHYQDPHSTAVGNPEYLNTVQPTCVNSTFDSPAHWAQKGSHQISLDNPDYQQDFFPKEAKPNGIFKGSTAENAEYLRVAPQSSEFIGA
T4 sequence (P04626 23-1255 S310F): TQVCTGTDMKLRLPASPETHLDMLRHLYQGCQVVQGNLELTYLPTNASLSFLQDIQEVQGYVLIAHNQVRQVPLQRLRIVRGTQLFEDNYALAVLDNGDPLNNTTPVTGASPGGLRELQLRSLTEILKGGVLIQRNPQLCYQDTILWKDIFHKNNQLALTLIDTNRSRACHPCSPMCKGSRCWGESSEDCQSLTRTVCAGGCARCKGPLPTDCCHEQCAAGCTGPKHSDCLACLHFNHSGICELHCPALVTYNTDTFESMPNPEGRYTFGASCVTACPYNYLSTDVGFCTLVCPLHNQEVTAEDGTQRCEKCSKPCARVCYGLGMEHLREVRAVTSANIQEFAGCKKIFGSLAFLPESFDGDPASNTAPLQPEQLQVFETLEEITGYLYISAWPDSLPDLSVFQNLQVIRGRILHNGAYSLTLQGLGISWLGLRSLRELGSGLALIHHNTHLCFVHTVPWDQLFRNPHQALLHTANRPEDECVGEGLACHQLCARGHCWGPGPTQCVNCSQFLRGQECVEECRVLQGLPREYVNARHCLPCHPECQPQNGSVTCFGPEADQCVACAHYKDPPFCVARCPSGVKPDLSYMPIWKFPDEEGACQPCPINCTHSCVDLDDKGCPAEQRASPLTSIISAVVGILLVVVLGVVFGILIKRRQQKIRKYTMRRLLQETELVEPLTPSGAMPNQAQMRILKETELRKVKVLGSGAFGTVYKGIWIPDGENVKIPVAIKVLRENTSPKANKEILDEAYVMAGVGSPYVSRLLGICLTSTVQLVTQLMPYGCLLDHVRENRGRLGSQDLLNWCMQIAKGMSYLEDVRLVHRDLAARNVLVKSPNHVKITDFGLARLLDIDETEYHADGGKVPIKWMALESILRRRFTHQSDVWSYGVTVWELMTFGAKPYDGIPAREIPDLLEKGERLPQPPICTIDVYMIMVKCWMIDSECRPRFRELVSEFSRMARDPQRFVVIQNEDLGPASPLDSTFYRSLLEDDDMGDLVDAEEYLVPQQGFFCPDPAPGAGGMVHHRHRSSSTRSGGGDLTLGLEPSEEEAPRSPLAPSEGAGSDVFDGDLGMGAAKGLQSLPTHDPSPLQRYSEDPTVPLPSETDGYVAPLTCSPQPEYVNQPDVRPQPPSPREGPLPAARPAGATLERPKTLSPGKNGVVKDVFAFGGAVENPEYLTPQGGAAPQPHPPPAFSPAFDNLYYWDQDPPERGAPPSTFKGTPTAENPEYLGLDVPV
T5 sequence (P00533 with tags, fused parts or gaps INS770SVD): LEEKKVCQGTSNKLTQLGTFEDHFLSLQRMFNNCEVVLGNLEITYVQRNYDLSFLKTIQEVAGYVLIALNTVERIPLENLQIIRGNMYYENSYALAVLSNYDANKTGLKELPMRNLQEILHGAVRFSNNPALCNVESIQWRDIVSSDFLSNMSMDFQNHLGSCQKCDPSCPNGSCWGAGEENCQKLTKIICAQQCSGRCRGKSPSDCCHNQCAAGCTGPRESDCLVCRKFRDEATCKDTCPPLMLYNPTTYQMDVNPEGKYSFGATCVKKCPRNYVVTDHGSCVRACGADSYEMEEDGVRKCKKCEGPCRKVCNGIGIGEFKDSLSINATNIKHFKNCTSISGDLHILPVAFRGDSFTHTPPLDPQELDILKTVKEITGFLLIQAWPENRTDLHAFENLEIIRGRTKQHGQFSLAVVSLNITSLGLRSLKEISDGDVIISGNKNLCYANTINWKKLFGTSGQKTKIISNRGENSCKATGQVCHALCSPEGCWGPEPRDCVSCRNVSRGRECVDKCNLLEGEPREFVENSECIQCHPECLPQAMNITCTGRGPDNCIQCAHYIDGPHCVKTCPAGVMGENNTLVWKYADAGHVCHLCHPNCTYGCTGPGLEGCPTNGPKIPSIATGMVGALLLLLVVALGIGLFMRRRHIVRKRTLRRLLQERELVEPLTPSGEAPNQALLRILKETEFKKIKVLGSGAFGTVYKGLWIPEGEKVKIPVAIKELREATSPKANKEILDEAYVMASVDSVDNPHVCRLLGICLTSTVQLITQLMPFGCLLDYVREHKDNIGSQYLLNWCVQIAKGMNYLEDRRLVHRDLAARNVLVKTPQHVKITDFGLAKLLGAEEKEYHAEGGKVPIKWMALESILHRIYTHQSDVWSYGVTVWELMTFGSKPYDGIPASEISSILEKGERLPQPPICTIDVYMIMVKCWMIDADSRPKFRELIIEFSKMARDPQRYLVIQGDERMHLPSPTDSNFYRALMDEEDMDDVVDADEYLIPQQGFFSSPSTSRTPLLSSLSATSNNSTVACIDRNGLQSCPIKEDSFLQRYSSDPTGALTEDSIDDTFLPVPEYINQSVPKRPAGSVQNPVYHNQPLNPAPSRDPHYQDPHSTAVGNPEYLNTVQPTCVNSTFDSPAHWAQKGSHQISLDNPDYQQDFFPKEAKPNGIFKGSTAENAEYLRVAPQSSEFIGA
T2 sequence (P04626 23-1255): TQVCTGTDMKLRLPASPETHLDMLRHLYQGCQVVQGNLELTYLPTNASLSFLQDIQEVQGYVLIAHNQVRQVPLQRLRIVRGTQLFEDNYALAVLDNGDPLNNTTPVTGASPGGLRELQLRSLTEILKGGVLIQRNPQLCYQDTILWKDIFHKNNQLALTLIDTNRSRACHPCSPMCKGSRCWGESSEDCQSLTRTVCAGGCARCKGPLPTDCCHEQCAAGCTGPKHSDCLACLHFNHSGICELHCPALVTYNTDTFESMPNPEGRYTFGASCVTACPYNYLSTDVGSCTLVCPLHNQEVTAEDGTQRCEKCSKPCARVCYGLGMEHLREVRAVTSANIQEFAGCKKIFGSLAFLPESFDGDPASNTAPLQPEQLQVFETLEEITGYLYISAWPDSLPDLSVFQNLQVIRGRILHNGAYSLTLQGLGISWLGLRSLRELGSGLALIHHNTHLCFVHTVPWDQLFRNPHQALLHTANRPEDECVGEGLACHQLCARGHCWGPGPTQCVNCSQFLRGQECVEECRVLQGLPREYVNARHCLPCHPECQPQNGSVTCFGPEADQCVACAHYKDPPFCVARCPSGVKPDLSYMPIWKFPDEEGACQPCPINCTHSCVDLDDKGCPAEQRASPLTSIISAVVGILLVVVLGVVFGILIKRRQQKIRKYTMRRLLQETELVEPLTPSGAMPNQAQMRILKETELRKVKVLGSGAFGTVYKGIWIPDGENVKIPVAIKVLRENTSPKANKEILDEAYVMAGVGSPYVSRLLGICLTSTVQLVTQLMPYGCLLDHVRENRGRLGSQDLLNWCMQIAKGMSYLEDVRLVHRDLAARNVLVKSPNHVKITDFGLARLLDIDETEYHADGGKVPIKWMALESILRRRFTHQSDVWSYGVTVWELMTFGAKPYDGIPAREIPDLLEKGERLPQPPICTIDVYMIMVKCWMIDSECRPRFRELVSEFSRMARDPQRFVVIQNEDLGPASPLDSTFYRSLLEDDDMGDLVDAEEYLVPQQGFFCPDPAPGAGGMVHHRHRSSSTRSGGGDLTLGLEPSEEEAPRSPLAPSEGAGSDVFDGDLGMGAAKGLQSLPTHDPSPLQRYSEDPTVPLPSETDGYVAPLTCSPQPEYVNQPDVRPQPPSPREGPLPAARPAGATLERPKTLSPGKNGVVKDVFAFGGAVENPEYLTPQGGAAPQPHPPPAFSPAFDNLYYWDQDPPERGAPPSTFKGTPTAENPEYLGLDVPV

SMILES | IC50 ([3]; Table A (Example 2)) [nM] | IC50 ([3]; Table A) [nM] | IC50 [4, 11] [nM] | IC50 [4, 12] [nM] | IC50 ([5]; Table A (Example 2)) [nM] | IC50 ([5]; Table A) [nM] | IC50 ([6]; Table B (Example 2)) [nM] | IC50 ([6]; Table B) [nM] | IC50 [4, 13] [nM] | other results
C=CC(=O)Nc1ccc2ncnc(Nc3ccc(OCc4cccc(F)c4)c(Cl)c3)c2c1 [AST-1306] |  |  |  |  |  |  |  |  |  | Induced dimers [1, 10]: No
C=CC(=O)Nc1cccc(Nc2nc(Nc3ccc(N4CCN(C(C)=O)CC4)cc3OC)ncc2C(F)(F)F)c1 [CO-1686] |  |  |  |  |  |  |  |  |  | Induced dimers [1]: Yes
COc1cc2ncnc(Nc3ccc(F)c(Cl)c3)c2cc1NC(=O)/C=C/CN1CCCCC1 [Dacomitinib, dacomitinib] |  |  |  |  |  |  |  |  |  | Induced dimers [1, 10]: Yes
CCOc1cc2ncc(C#N)c(Nc3ccc(OCc4cccc(F)c4)c(Cl)c3)c2cc1NC(=O)/C=C/CN(C)C [HKI-357] |  |  |  |  |  |  |  |  |  | Induced dimers [1, 10]: No
CN(C)C/C=C/C(=O)Nc1cc2c(Nc3ccc(F)c(Cl)c3)ncnc2cc1C#CC1[C@H]2COC[C@@H]12 (stereo partly drawn) [NT-113] |  |  |  |  |  |  |  |  |  | formation of covalent EGFR dimers ([1]; cells expressing covalently-activated EGFR variants, non-reducing conditions): induces dimerization; proliferation of cells expressing covalently-activated EGFR (paradoxical activation) ([2]; sub-saturating concentrations, up to 72 hours): no evidence for increased cellular proliferation
CCOc1cc2ncc(C#N)c(Nc3ccc(OCc4ccccn4)c(Cl)c3)c2cc1NC(=O)/C=C/CN(C)C [Neratinib, neratinib] |  |  |  |  |  |  |  |  |  | proliferation of cells expressing covalently-activated EGFR (paradoxical activation) [2]: devoid of paradoxical activation
CCOc1cc2ncc(C#N)c(Nc3ccc(F)c(Cl)c3)c2cc1NC(=O)/C=C/CN(C)C [Pelitinib, pelitinib] |  |  |  |  |  |  |  |  |  | Induced dimers [1]: Yes
C=CC(=O)Nc1cc2c(Nc3ccc4c(cnn4Cc4cccc(F)c4)c3)ncnc2cc1N(C)CCN(C)C [compound 1] | 50 to 100 | 50 to 100 | 20 to 30 | 20 to 30 | 500 to 1000 | 500 to 1000 | 100 to 200 | 100 to 200 |  | 
C=CC(=O)Nc1cc2c(Nc3ccc4c(cnn4Cc4cccc(F)c4)c3)ncnc2cc1N(C)CCN1CCOCC1 [compound 2] | 30 to 50 | 30 to 50 | 20 to 30 | 20 to 30 | > 1000 | > 1000 | 100 to 200 | 100 to 200 |  | 
C=CC(=O)Nc1cc2c(Nc3ccc4c(cnn4Cc4cccc(F)c4)c3)ncnc2cc1N(C)CCCN1CCOCC1 [compound 4] | 30 to 50 | 30 to 50 | 10 to 20 | 10 to 20 | 500 to 1000 | 500 to 1000 | 100 to 200 | 100 to 200 | ≤ 20 | 
C=CC(=O)Nc1cc2c(Nc3ccc4c(cnn4Cc4cccc(F)c4)c3)ncnc2cc1NCCN1CCOCC1 [compound 5] | 100 to 200 | 100 to 200 | 5 to 10 | 5 to 10 | 200 to 300 | 200 to 300 | 100 to 200 | 100 to 200 | ≤ 10 | 
C=CC(=O)Nc1cc2c(Nc3ccc4c(cnn4Cc4cccc(F)c4)c3)ncnc2cc1OCCCN1CC2CC1CO2 (stereo not drawn) [compound 6] | 30 to 50 | 30 to 50 | < 5 | < 5 | 100 to 200 | 100 to 200 | 10 to 20 | 10 to 20 | ≤ 6 | 
C=CC(=O)Nc1cc2c(Nc3ccc4c(cnn4Cc4cccc(F)c4)c3)ncnc2cc1N(C)CCCN1CC2CC1CO2 (stereo not drawn) [compound 7] | 100 to 200 | 100 to 200 | 10 to 20 | 10 to 20 | 300 to 500 | 300 to 500 | 100 to 200 | 100 to 200 | ≤ 20 | 
C=CC(=O)Nc1cc2c(Nc3ccc4c(cnn4Cc4cccc(F)c4)c3)ncnc2cc1OCCN1CCCCC1 [compound 8] | 20 to 30 | 20 to 30 | 5 to 10 | 5 to 10 | 100 to 200 | 100 to 200 | 10 to 20 | 10 to 20 | ≤ 10 | IC50 ([7]; Table A (Example 2)): 30 to 50 nM; IC50 ([7]; Table A): 30 to 50 nM; IC50 ([8]; Table A (Example 2)): 30 to 50 nM; IC50 ([8]; Table A): 30 to 50 nM; IC50 ([9]; Table B (Example 2)): 100 to 200 nM; IC50 ([9]; Table B): 100 to 200 nM
C=CC(=O)Nc1cc2c(Nc3ccc4c(cnn4Cc4cccc(F)c4)c3)ncnc2cc1C#CC(C)(C)N1CCN(C)CC1 [compound 9] | 30 to 50 | 30 to 50 | 5 to 10 | 5 to 10 | 300 to 500 | 300 to 500 | 10 to 20 | 10 to 20 | ≤ 10 | IC50 ([7]; Table A (Example 2)): 30 to 50 nM; IC50 ([7]; Table A): 30 to 50 nM; IC50 ([8]; Table A (Example 2)): 30 to 50 nM; IC50 ([8]; Table A): 30 to 50 nM; IC50 ([9]; Table B (Example 2)): 50 to 100 nM; IC50 ([9]; Table B): 50 to 100 nM
C=CC(=O)Nc1cc2c(Nc3ccc4c(cnn4Cc4cccc(F)c4)c3)ncnc2cc1OCCN(C)C [compound 10] | 20 to 30 | 20 to 30 | < 5 | < 5 | 100 to 200 | 100 to 200 | 20 to 30 | 20 to 30 | ≤ 6 | IC50 ([7]; Table A (Example 2)): 30 to 50 nM; IC50 ([7]; Table A): 30 to 50 nM; IC50 ([8]; Table A (Example 2)): 30 to 50 nM; IC50 ([8]; Table A): 30 to 50 nM; IC50 ([9]; Table B (Example 2)): 50 to 100 nM; IC50 ([9]; Table B): 50 to 100 nM
